Data as given in PMC9499506, “TNF-α and IL-1β Modulate Blood-Brain Barrier Permeability and Decrease Amyloid-β Peptide Efflux in a Human Blood-Brain Barrier Model” (International Journal of Molecular Sciences, 2022).

What was measured:
Type in all cases: cell-based, human
BLECs [1] = assay: Western immunoblotting of proinflammatory markers (ICAM-1, VCAM-1, NLRP3) in BLECs; details: for protein levels of ICAM-1, VCAM-1 and NLRP3 versus untreated BLECs: 10 ng·mL^−1, 24 h
Protocol: Next, as the inflammatory response of endothelial cells is largely dependent on appropriate upregulation of adhesion molecules, such as intercellular adhesion molecule-1 (ICAM-1) and vascular cell adhesion molecule-1 (VCAM-1), and the inflammasome molecule NOD-like receptor family, pyrin domain containing 3 (NLRP3), we evaluated, by Western immunoblotting, the ability of BLECs to respond to these pro-inflammatory stimuli.
(§1) Each condition was studied in triplicate.
(§2) After 24 h of treatments with or without proinflammatory cytokines, BLECs were washed twice with cold RH buffer and scraped with 70 μL of RIPA 1X lysis buffer (10 mM Tris-Cl (pH 8.0), 1 mM EDTA, 0.5 mM EGTA, 1% Triton X-100, 0.1% sodium deoxycholate, 0.1% SDS, 140 mM NaCl) (Merck Millipore, Burlington, MA, USA) or UT4 lysis buffer (7M Urea, 2M Thiourea, 4% CHAPS), both supplemented with a cocktail of phosphatase and protease inhibitors (1% protease inhibitors cocktail #P8340; 1% phosphatase inhibitors cocktail 1 P2850; 1% phosphatase inhibitors cocktail 2 #P5726; 1% protease inhibitors cocktail #P8340) purchased from Sigma-Aldrich (Lyon, France). Then, a centrifugation at 10,000 rpm for 10 min at 4 °C was achieved to save the supernatant of the lysate. This was later sonicated two times for 5 s on ice. The concentration of the protein lysate was quantified using the Bradford method (#5000006; rad, Munich, Germany). The protein samples were then stored at −20 °C.
(§3) 20 μg of total protein was mixed with Laemmli 4X (#1610747; Biorad, Munich, Germany) supplemented with β-mercaptoethanol (Sigma-Aldrich, Germany). Depending on the protein target, details of the denaturation and reduction steps of the protein extract are described in Table 3. Then, the protein mixes were electrophoresed using Criterion™ TGX™ (Tris-Glycine eXtended) precast gels (Biorad, Munich, Germany) and subsequently electrotransferred to nitro-cellulose membranes (GE Healthcare, Munich, Germany). Once the previous step was completed, Tris-buffered saline 0.1% Tween 20 (TBST; 20 mM Tris-HCl, pH 8.0, 500 mM NaCl, 0.1% Tween 20) supplemented with 5% skimmed milk was added on membrane to block nonspecific binding sites for 1 h under agitation at RT. Membranes were incubated in the appropriate primary antibodies (as described in Table 3) and incubated at 4 °C overnight, except β-actin (20 min at RT).
(§4) The following morning, the membranes were rinsed with TBST three times for 5 min each under agitation, and then incubated with the horseradish peroxidase-conjugated secondary antibody anti-rabbit (1:8000, Dako/Agilent Technologies, Inc., Santa Clara, CA, USA) or secondary antibody anti-mouse (1:5000, Dako/Agilent Technologies, Inc., Santa Clara, CA, USA) for 1 h at RT. […] Quantification of the relative densities of bands was performed with TotalLab TL 100 1D Gel Analysis software (Nonlinear Dynamics, Newcastle, UK). The protein expression normalization was conducted with anti-β-actin. Studies were performed with at least three independent experiments, with at least two Western immunoblottings per experiment.

BLECs [2] = assay: Western immunoblotting of junctional proteins in BLECs; details: 10 ng·mL^−1, 24 h
Protocol: as §1, §2, §3, §4

BLECs [3] = assay: Western immunoblotting of receptors/transporters involved in Aβ peptide transport in BLECs; details: 10 ng·mL^−1, 24 h; for downregulation of BCRP protein level compared to control / downregulation of LRP1 protein level compared to control: normalized to β-actin
Protocol: as §1, §2, §3, §4

BLECs [4] = assay: Effect of cytokines on Aβ1–40Cy5 transcytosis quotient across BLECs; details: cytokine 10 ng·mL^−1 basolateral, 24 h; then 30 min transport at 37 °C; compared to control
Protocol: As TNF-α and IL-1β modulated the protein expression levels of LRP1, BCRP and PICALM (Figure 4), we investigated the effect of these cytokines on the transport of Aβ peptide across the BBB. After 24 h of treatment with proinflammatory cytokines, the apical-to-basolateral (influx) and basolateral-to-apical (efflux) Aβ1–40Cy5 peptide transports across the BLECs were assessed in the presence of FITC-inulin. The Aβ1–40 peptide was used in all experiments, as it is the most abundant amyloid peptide found on cerebral blood vessels. FITC-inulin was used to determine the nonspecific transcytosis quotient (Figure 5A). Indeed, unlike Aβ peptide, FITC-inulin is not actively cleared at the BBB and acts as a reference marker of paracellular permeability, thus as previously reported.
as §1
After proinflammatory cytokine treatments, the influx (apical-to-basolateral) and the efflux (basolateral-to-apical) transport of Aβ1–40 peptides across BLECs were investigated as previously described. Briefly, for influx studies, inserts with BLECs were transferred to new 12-well plates containing 1.5 mL of RH–HSA 0.1% (the receiver solution) per well. In the insert, 0.5 mL of RH-HSA 0.1% supplemented with 10 nM Aβ1–40Cy5 peptide were added (the donor solution). For efflux studies, inserts with BLECs were transferred to new 12-well plates, this time containing 1.5 mL of RH-has 0.1% with 10 nM fluorescent Aβ1–40Cy5 (the donor solution) peptide, then 0.5 mL of RH-HSA 0.1% (the receiver solution) was added in the insert. […] The BBB integrity was determined by measuring the endothelial permeability of a radioactive integrity marker, ^14C-sucrose, using the same method of calculation as described in Section 4.4. […] At the end of the experiment, aliquots of the receiver and donor solutions were collected, and the fluorescence compounds (Aβ1–40Cy5 peptide and FITC-inulin) were quantified with a spectrofluorimeter (Synergy H1, Biotek, Colmar, France). The radioactivity of ^14C-saccharose was measured using a scintillation counter (Hidex 300 SL, Hidex, Turku, Finland). The apparent permeability coefficients (cm.sec^−1) of Aβ1–40Cy5 peptide and FITC-inulin were calculated as previously described. Once influx and efflux Papp were determined for each molecule, the specific transport of Aβ1–40Cy5 across the BLECs in influx and efflux directions were identified by calculating the transcytosis quotient of Aβ1–40Cy5 using the following formulas: “influx transcytosis quotient of Aβ1–40Cy5 = (influx Aβ1–40Cy5 Papp)/(influx FITC-inulin Papp)” or “efflux transcytosis quotient of Aβ1–40Cy5 = (efflux Aβ1–40Cy5 Papp)/(efflux FITC-inulin Papp)”. For each filter, the mass balance was determined as described in Section 4.4. […]

[5] = both cytokines 10 ng·mL^−1, 24 h, normalized to β-actin

Substance | protein levels of ICAM-1, VCAM-1 and NLRP3 versus untreated BLECs (BLECs [1]) | Claudin-5 protein levels versus control (BLECs [2]) | decrease of ZO-1 protein expression compared to control (BLECs [2]; normalized to β-actin) [%] | decrease of claudin-3 protein level compared to control (BLECs [2]; normalized to β-actin) [%] | decrease of occludin protein level compared to control (BLECs [2]; normalized to β-actin) [%] | decrease of tricellulin protein level compared to control (BLECs [2]; normalized to β-actin) [%] | P-gp protein expression compared to control (BLECs [3]) | PICALM protein expression compared to control (BLECs [3]) | RAGE protein expression compared to control (BLECs [3]) | downregulation of BCRP protein level compared to control (BLECs [3]) [%] | downregulation of LRP1 protein level compared to control (BLECs [3]) [%] | apical-to-basolateral transcytosis quotient (specific influx) of Aβ1–40Cy5 peptide (BLECs [4]) | reduction of basolateral-to-apical transcytosis quotient (specific efflux) of Aβ1–40Cy5 peptide (BLECs [4]) [%] | ICAM-1 protein level higher after TNF-α compared to IL-1β (BLECs [1]; [5]) [%] | NLRP3 protein level higher after TNF-α compared to IL-1β (BLECs [1]; [5]) [%] | VCAM-1 protein level higher after TNF-α compared to IL-1β (BLECs [1]; [5]) [%] | VE-cadherin protein level versus control (BLECs [2]; normalized to β-actin) | ZO-1 protein level versus control (BLECs [2]; normalized to β-actin) | increase of Claudin-5 protein expression compared to control (BLECs [2]; normalized to β-actin) [%]
interleukin-1β [IL-1β] | significantly higher | not reflected by a change in Claudin-5 protein levels | 26.4 | 73.1 | 33.5 | 51.0 | no significant change | induced an increase of PICALM protein expression | no significant change | 49.0 | 45.2 | not modified | 25.9 |  |  |  |  |  | 
tumor necrosis factor-α [TNF-α] | significantly higher |  |  | 57.3 | 38.1 | 50.9 | no significant change | did not affect PICALM protein expression | no significant change | 73.4 | 41.9 | not modified | 26.9 | 22.2 | 478.4 | 230.6 | not significantly different | not significantly different | 40.2
